PMC10590056, “Design and synthesis of cabotegravir derivatives bearing 1,2,3-triazole and evaluation of anti-liver cancer activity” (Frontiers in Pharmacology, 2023)
Where “and” joins values, the source holds several entries; their conditions need not be identical. Identical values can stand only once. Like-named read-outs stand apart in the source and are kept apart here.

Assays:
Assay type in all cases: cell-based
HepG2 cells [1] = experiment: Transwell migration assay (without Matrigel); conditions: HepG2, 24 h treatment, vs control
Method: HepG2 cells were treated with either KJ-5 or KJ-12 for 24 h. Then, the cells were suspended and seeded into the upper chamber of a 24-well Transwell plate (Corning Inc., United States) in serum-free medium. The cells were cultured for 24 h at 37°C; a medium containing 20% FBS as a chemoattractant was added to the lower chamber. HepG2 cells that had invaded through the membrane were fixed with 4% paraformaldehyde for 20 min and stained with 0.1% crystal violet. Five random fields were then imaged and quantified using an inverted fluorescence microscope (Axio Observer3, Germany). To assess invasion, transwell assays were performed in a similar manner, with the exception of coating the upper chamber of the Transwell with 100 μL of diluted Matrigel solution per well.

HepG2 cells [2] = experiment: Annexin V-FITC/PI staining for cell apoptosis (flow cytometry); conditions: 24 h; for Proportion of apoptotic cells: Annexin-V/PI
Method: HepG2 cells were plated in a 6-well plate at a density of 5 × 10^6 cells/well and incubated for 24 h. Then, the original culture medium was replaced with 2 mL DMEM containing KJ-5 or KJ-12 (2, 4, and 8 μM) and incubated for 24 h. After incubation with KJ-5 or KJ-12, the cells were washed with cold PBS and then resuspended in 100 µL binding buffer at a concentration of 1 × 10^6 cells/mL. Then, 5 μl of FITC Annexin V and 5 µl of PI were added to the solution. The cells were gently vortexed and incubated for 15 min at room temperature (25°C) in the dark. Subsequently, 400 µL binding buffer was added to each tube, and the samples were analyzed by flow cytometry (BD Accuri™ C6 Plus) within 1 h.

normal hepatic cells L02 = experiment: MTT inhibition rate in normal hepatic cells L02; conditions: for Average OD / Inhibitory rate / ODtreated/ODcontrol: L02 cells, 3 repeat experiments; for Average OD: average of 5 wells; for Inhibitory rate / ODtreated/ODcontrol: fraction
HeLa cells = experiment: MTT assay for cell proliferation, HeLa; set-up: key to Inhibitory rate: inhibition rate = 1 - mean A490 sample/mean A490 control (fraction)
In short: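 Cells grown in DMEM with 10% FBS at 37 °C, 5% CO2, seeded at 10^5 cells/mL and exposed to KJ-5 or KJ-12 at 0–32 μM for 48 h. MTT added for 4 h, formazan dissolved in DMSO, A490 read; inhibition = (1 − sample/control A490) × 100%.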

HepG2 cells [3] = experiment: Cell cycle analysis (PI, flow cytometry); conditions: 24 h
Method: HepG2 cells were seeded in a 6-well plate at a density of 5 × 10^6 cells/well and treated with either KJ-5 or KJ-12 at concentrations of 2, 4, or 8 μM for 24 h. Cells were then collected and responded in […] of cold PBS. Subsequently, 700 μL of cold 70% ethanol was added to the cells and gently mixed by inversion on ice for 1 h. Cells were then centrifuged at 2,000 rpm for 10 min, washed once with 2 mL of cold PBS, and the supernatant was discarded. The cell pellet was resuspended in 250 μL of cold PBS, followed by the addition of 10 μL of RNase at a final concentration of 0.4 mg/mL and incubated at 37°C for 30 min. An additional 250 μL of PBS was added, followed by the addition of 5 μL of PI solution at a final concentration of 10 μg/mL. The samples were incubated […] in the dark overnight at 4°C. Finally, the samples were analyzed by flow cytometry.

COc1c2n(cc(C(=O)Nc3cccc(-c4cn(-c5cc(C(F)(F)F)cc(C(F)(F)F)c5)nn4)c3)c1=O)C[C@H]1OC[C@H](C)N1C2=O [KJ-5]
Migration of HepG2 cells (transwell without Matrigel) (HepG2 cells [1]): significantly impaired | Proportion of apoptotic cells (HepG2 cells [2]; HepG2, 2 μM): 21.8 ± 1.3% | Proportion of apoptotic cells (HepG2 cells [2]; HepG2, 4 μM): 30.9 ± 1.4% | Proportion of apoptotic cells (HepG2 cells [2]; HepG2, 8 μM): 52.7 ± 1.7% | Cell apoptosis (in words) (HepG2 cells [2]; HepG2, 2, 4, 8 μM): significantly caused cell apoptosis in a concentration-dependent manner | inhibition at 1 µM (normal hepatic cells L02; Homo sapiens, L02, 48 h, L02, 1 μM, 48 h): 9.85 ± 1.6% | inhibition at 2 µM (normal hepatic cells L02; Homo sapiens, L02, 48 h, L02, 2 μM, 48 h): 14.9 ± 1.97% | inhibition at 4 µM (normal hepatic cells L02; Homo sapiens, L02, 48 h, L02, 4 μM, 48 h): < 20% | inhibition at 8 µM (normal hepatic cells L02; Homo sapiens, L02, 48 h, L02, 8 μM, 48 h): 27.1 ± 1.03% | inhibition at 16 µM (normal hepatic cells L02; Homo sapiens, L02, 48 h, L02, 16 μM, 48 h): 34.9 ± 2.22% | Average OD (normal hepatic cells L02; Group 1): 1.014 and 1.1374 and 1.3158 | Inhibitory rate (normal hepatic cells L02; Group 1): 0.1149 and 0.09786 and 0.08274 | ODtreated/ODcontrol (normal hepatic cells L02; Group 1): 0.8851 and 0.9021 and 0.9173 | Average OD (normal hepatic cells L02; Group 2): 0.969 and 1.07 and 1.2316 | Inhibitory rate (normal hepatic cells L02; Group 2): 0.1715 and 0.1379 and 0.1371 | ODtreated/ODcontrol (normal hepatic cells L02; Group 2): 0.8285 and 0.8621 and 0.8629 | Average OD (normal hepatic cells L02; Group 4): 0.922 and 1.0172 and 1.2162 | Inhibitory rate (normal hepatic cells L02; Group 4): 0.1819 and 0.1797 (2×) | ODtreated/ODcontrol (normal hepatic cells L02; Group 4): 0.8181 and 0.8203 (2×) | Average OD (normal hepatic cells L02; Group 8): 0.8272 and 0.9114 and 1.0668 | Inhibitory rate (normal hepatic cells L02; Group 8): 0.2824 and 0.2641 and 0.265 | ODtreated/ODcontrol (normal hepatic cells L02; Group 8): 0.7176 and 0.7359 and 0.735 | Average OD (normal hepatic cells L02; Group 16): 0.7216 and 0.9442 | Inhibitory rate (normal hepatic cells L02; Group 16): 0.3649 and 0.358 and 0.3234 | ODtreated/ODcontrol (normal hepatic cells L02; Group 16): 0.6351 and 0.642 and 0.6766 | Average OD (normal hepatic cells L02; Group 32): 0.428 and 0.4844 and 0.436 | Inhibitory rate (normal hepatic cells L02; Group 32): 0.7067 and 0.6192 and 0.6094 | ODtreated/ODcontrol (normal hepatic cells L02; Group 32): 0.2933 and 0.3808 and 0.3906 | Inhibitory rate (HeLa cells; Hela, group 1 (concentration), fraction, single experiments): 0.2915 and 0.2462 and 0.2143 | ODtreated/ODcontrol (HeLa cells; Hela, group 1 (concentration), single experiments): 0.7085 and 0.7538 and 0.7857 | Inhibitory rate (HeLa cells; Hela, group 2 (concentration), fraction, single experiments): 0.3879 and 0.3569 and 0.2882 | ODtreated/ODcontrol (HeLa cells; Hela, group 2 (concentration), single experiments): 0.6121 and 0.6431 and 0.7118 | Inhibitory rate (HeLa cells; Hela, group 4 (concentration), fraction, single experiments): 0.418 and 0.3669 and 0.3302 | ODtreated/ODcontrol (HeLa cells; Hela, group 4 (concentration), single experiments): 0.582 and 0.6331 and 0.6698 | Inhibitory rate (HeLa cells; Hela, group 8 (concentration), fraction, single experiments): 0.5915 and 0.5007 and 0.5011 | ODtreated/ODcontrol (HeLa cells; Hela, group 8 (concentration), single experiments): 0.4085 and 0.4993 and 0.4989 | Inhibitory rate (HeLa cells; Hela, group 16 (concentration), fraction, single experiments): 0.834 and 0.8197 and 0.8242 | ODtreated/ODcontrol (HeLa cells; Hela, group 16 (concentration), single experiments): 0.166 and 0.1803 and 0.1758 | Inhibitory rate (HeLa cells; Hela, group 32 (concentration), fraction, single experiments): 0.8525 and 0.86 and 0.8737 | ODtreated/ODcontrol (HeLa cells; Hela, group 32 (concentration), single experiments): 0.1475 and 0.14 and 0.1263 | IC50 (HeLa cells; Hela, one of three experiments, unit inferred, read-out: IC50, single experiment, Hela): 5.87 µM | Inhibitory rate (HeLa cells; Hela, fraction, per experiment): 0.8059 and 0.7883 and 0.7664 | ODtreated/ODcontrol (HeLa cells; Hela, fraction, per experiment): 0.1941 and 0.2117 and 0.2336 | IC50 (HeLa cells; Homo sapiens, HeLa, 48 h, HeLa, 48 h, MTT, read-out: IC50 HeLa): 5.02 ± 0.94 µM | IC50 (HeLa cells; Homo sapiens, HeLa, one of three experiments, unit inferred, read-out: IC50, single experiment, Hela): 5.16 µM | inhibition at 16 µM (HeLa cells; Homo sapiens, preliminary screening, Hela, 16 μM, 48 h, mean±SD, unit inferred, read-out: Inhibition rate (16μM), 48 h, Hela): 79.4 ± 1.04% | Percentage of cells in the G1 phase (HepG2 cells [3]; HepG2, 2 μM): 21.2% | Percentage of cells in the G2/M phase (HepG2 cells [3]; HepG2, 2 μM): 50.4% | Percentage of cells in the G1 phase (HepG2 cells [3]; HepG2, 4 μM): 15% | Percentage of cells in the G2/M phase (HepG2 cells [3]; HepG2, 4 μM): 58.3% | Percentage of cells in the G1 phase (HepG2 cells [3]; HepG2, 8 μM): 13.5% | Percentage of cells in the G2/M phase (HepG2 cells [3]; HepG2, 8 μM): 62.6% | Percentage of cells in the S phase (change vs control) (HepG2 cells [3]; HepG2, 2-8 μM): did not change significantly
